Measured values as given in ChEMBL document CHEMBL6134853, “Design, Synthesis, and Biological Evaluation of Pyrrolo[1,2-a]quinoxalin-4(5H)-one Derivatives as Potent and Orally Available Noncovalent Bruton's Tyrosine Kinase (BTK) Inhibitors” (J Med Chem, 2025).
Activity calls are given as the source filed them. No cut-off for these calls is given here.

Key:
[1] = Cmax in male Sprague-Dawley rat at 10 mg/kg, po measured up to 5 hrs by LC-MS/MS analysis; format: ADME, organism-based; details: in vivo
[2] = Toxicity in BALB/c mouse xenografted with human U-937 cells assessed as parenchymal injury in kidney at 50 to 100 mg/kg, po administered once a day for 14 days by H and E staining based analysis; format: organism-based; details: in vivo, 336 h, dose 50-100 mg/kg, time 14 day
[3] = molecular target: Tyrosine-protein kinase BTK (Homo sapiens, UniProt Q06187); test: Inhibition of BTK phosphorylation at Y223 residue in anti-IgM induced human U-937 cells preincubated with compound for 4 hrs followed by anti-IgM induction and measured after 15 mins by Western blot analysis; format: cell-based; details: dose <= 1.0 µM, time 255.0 min
Sequence of Tyrosine-protein kinase BTK (Q06187 whole entry): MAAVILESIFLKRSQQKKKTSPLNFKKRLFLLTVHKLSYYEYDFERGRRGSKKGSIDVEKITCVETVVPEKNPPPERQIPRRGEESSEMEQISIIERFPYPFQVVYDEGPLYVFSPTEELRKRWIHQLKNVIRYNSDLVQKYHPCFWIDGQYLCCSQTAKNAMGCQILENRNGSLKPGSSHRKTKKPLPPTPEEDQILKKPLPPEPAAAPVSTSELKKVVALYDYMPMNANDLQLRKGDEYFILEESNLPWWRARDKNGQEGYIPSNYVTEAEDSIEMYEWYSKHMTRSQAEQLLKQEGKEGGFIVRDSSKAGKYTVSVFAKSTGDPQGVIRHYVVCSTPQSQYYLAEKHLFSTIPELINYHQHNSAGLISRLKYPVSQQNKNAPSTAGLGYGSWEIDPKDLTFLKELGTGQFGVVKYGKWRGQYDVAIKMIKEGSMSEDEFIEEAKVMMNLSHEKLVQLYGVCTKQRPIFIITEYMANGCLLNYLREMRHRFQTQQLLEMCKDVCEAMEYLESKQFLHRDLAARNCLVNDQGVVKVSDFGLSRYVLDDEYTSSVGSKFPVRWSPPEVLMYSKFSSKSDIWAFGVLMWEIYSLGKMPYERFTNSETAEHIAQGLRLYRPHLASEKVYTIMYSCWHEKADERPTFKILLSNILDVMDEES

[4] = molecular target: T1, Tyrosine-protein kinase Tec (Homo sapiens) (UniProt P42680); test: Inhibition of TEC (unknown origin) at 100 nM relative to control
T1 sequence (whole entry): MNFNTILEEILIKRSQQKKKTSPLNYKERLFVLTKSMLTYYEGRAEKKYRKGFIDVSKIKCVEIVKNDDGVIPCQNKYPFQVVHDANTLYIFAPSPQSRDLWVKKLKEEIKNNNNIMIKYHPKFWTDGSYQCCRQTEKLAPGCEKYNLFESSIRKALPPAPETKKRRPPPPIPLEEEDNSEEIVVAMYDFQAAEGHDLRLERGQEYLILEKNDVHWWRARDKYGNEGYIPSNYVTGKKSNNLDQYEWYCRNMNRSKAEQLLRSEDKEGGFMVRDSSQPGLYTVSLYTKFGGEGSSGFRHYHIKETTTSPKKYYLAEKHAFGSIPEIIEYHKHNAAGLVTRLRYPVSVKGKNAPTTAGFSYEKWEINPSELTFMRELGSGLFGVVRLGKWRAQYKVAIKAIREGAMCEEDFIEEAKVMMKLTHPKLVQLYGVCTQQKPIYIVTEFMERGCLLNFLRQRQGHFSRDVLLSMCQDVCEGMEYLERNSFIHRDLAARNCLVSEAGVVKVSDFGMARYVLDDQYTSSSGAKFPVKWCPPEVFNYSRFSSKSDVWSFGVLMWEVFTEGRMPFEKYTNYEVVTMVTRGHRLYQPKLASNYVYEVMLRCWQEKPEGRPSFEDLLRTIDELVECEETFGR

[5] = AUC (0 to 5 hrs) in male Sprague-Dawley rat at 10 mg/kg, po measured up to 5 hrs by LC-MS/MS analysis; format: ADME, organism-based; details: in vivo
[6] = molecular target: Phosphatidylinositol 4-phosphate 5-kinase type-1 alpha (Homo sapiens) (UniProt Q99755); test: Inhibition of PIP5K1A (unknown origin) at 100 nM relative to control
Sequence of Phosphatidylinositol 4-phosphate 5-kinase type-1 alpha (Homo sapiens) (Q99755 whole entry): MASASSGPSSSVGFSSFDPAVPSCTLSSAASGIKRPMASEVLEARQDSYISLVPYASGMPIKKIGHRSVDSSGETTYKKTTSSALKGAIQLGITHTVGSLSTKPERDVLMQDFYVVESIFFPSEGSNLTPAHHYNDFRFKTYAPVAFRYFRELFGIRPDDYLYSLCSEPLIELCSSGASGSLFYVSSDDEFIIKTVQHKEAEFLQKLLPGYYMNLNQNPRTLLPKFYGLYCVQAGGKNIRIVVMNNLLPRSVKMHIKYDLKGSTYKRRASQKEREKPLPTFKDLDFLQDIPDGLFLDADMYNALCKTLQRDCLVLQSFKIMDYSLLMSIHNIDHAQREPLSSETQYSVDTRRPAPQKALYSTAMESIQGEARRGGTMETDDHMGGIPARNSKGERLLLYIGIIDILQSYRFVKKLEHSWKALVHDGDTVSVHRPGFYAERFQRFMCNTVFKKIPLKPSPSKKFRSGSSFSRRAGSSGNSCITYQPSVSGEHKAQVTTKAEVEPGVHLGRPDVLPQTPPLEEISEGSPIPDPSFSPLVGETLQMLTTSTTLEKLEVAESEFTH

U-937 [7] = test: Antitumor activity against human U-937 cells xenografted in BALB/c mouse assessed as tumor growth inhibition at 50 mg/kg, po administered once a day for 14 days; format: functional; details: U-937, 336 h, time 14 day, read-out: TGI
[8] = Toxicity in BALB/c mouse xenografted with human U-937 cells assessed as inflammatory infiltration in spleen at 50 to 100 mg/kg, po administered once a day for 14 days by H and E staining based analysis; format: organism-based; details: in vivo, 336 h, dose 50-100 mg/kg, time 14 day
U-937 [9] = test: Antiproliferative activity against human U-937 cells expressing BTK assessed as inhibition of cell proliferation incubated for 48 hrs by CCK-8 assay; format: functional, cell-based; details: U-937, 48 h
[10] = molecular target: T2, Serine/threonine-protein kinase RIO3 (Homo sapiens) (UniProt O14730); test: Inhibition of RIOK3 (unknown origin) at 100 nM relative to control
T2 sequence (whole entry): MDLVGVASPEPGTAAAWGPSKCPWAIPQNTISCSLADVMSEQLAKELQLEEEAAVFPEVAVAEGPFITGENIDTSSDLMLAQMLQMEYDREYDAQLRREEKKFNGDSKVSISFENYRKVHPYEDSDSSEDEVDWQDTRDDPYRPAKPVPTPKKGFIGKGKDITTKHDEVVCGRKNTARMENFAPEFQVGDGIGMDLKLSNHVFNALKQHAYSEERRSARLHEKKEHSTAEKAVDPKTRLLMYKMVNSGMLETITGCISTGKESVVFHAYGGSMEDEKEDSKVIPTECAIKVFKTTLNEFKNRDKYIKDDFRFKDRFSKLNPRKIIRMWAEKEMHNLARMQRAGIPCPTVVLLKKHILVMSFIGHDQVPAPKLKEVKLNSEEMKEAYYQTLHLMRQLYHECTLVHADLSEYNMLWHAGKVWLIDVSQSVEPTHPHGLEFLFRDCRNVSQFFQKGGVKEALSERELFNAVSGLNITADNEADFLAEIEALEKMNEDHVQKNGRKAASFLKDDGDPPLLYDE

U-937 [11] = test: Induction of cell cycle arrest in human U-937 cells assessed as accumulation of cells at S-phase incubated for 2 days by PI staining based flow cytometry analysis; format: functional; details: dose 1-10 µM, time 2.0 day
[12] = Toxicity in BALB/c mouse xenografted with human U-937 cells assessed as inflammatory infiltration in heart at 50 to 100 mg/kg, po administered once a day for 14 days by H and E staining based analysis; format: organism-based; details: in vivo, 336 h, dose 50-100 mg/kg, time 14 day
[13] = AUC (0 to t) in male Sprague-Dawley rat at 10 mg/kg, po measured up to 24 hrs by LC-MS/MS analysis; format: ADME, organism-based; details: in vivo
U-937 [14] = test: Antitumor activity against human U-937 cells xenografted in po dosed BALB/c mouse assessed as tumor growth inhibition administered once a day for 14 days; format: functional, organism-based; details: dose 50-100 mg/kg, time 14.0 day
[15] = Toxicity in BALB/c mouse xenografted with human U-937 cells assessed as inflammatory infiltration in lung at 50 to 100 mg/kg, po administered once a day for 14 days by H and E staining based analysis; format: organism-based; details: in vivo, 336 h, dose 50-100 mg/kg, time 14 day
[16] = Tmax in male Sprague-Dawley rat at 10 mg/kg, po measured up to 5 hrs by LC-MS/MS analysis; format: ADME, organism-based; details: in vivo
[17] = Toxicity in BALB/c mouse xenografted with human U-937 cells assessed as parenchymal injury in liver at 50 to 100 mg/kg, po administered once a day for 14 days by H and E staining based analysis; format: organism-based; details: in vivo, 336 h, dose 50-100 mg/kg, time 14 day
[18] = Toxicity in BALB/c mouse xenografted with human U-937 cells assessed as parenchymal injury in spleen at 50 to 100 mg/kg, po administered once a day for 14 days by H and E staining based analysis; format: organism-based; details: in vivo, 336 h, dose 50-100 mg/kg, time 14 day
U-937 [19] = test: Antitumor activity against human U-937 cells xenografted in BALB/c mouse assessed as reduction in Ki67 expression in tumor at 50 mg/kg, po administered once a day for 14 days by immunohistochemical analysis; format: functional, organism-based; details: time 14.0 day
[20] = Toxicity in BALB/c mouse xenografted with human U-937 cells assessed as change in body weight at 50 to 100 mg/kg, po administered once a day for 14 days; format: organism-based; details: in vivo, 336 h, dose 50-100 mg/kg, time 14 day

CC(C)(O)c1ccc2c(c1)[nH]c(=O)c1ccc(-c3cccc(-n4c(=O)[nH]c5c(F)cccc5c4=O)c3F)n12
Cmax [1]: 62.4 ng/mL | Activity [2]: Non-toxic | inhibition [3]: Dose-dependent-effect | inhibition [4]: Active | AUC(0-t) at 5 h [5]: 116 ng·h/mL | inhibition [6]: Active | inhibition in vivo at 50 mg/kg (U-937 [7]): 64.4% | Activity [8]: Non-toxic | IC50 (U-937 [9]): 7.9 µM | inhibition [10]: Active | Activity (U-937 [11]): Dose-dependent-effect | Activity [12]: Non-toxic | AUC(0-t) at 24 h [13]: 161 ng·h/mL | Activity (U-937 [14]): Dose-dependent-effect | Activity [15]: Non-toxic | Tmax [16]: 30 min | Activity [17]: Non-toxic | Activity [18]: Non-toxic | Activity (U-937 [19]): Active | Activity [20]: Non-toxic
